Results reported in patent US10836921B2, “Ink, ink cartridge, and ink jet recording method” (CANON KABUSHIKI KAISHA, priority 2016, dated 2020).
Like-named read-outs stand apart in the source and are kept apart here.

Key:
Vapor pressure at 20° C. = assay type: physicochemical
Method: (§1) The alcohol used as the poorly water-soluble solvent has a vapor pressure at 20° C. of 0.5 mmHg or less and a surface tension of 30.0 mN/m or more as described above. When a poorly water-soluble alcohol having a vapor pressure at 20° C. of more than 0.5 mmHg forms a film on an ejection opening of a recording head, the film evaporates unfortunately, and the effect of suppressing water evaporation is reduced. In consideration of this point, the poorly water-soluble alcohol preferably has a vapor pressure at 20° C. of 0.2 mmHg or less and more preferably 0.1 mmHg or less. Meanwhile, a poorly water-soluble alcohol having a surface tension of less than 30.0 mN/m has a weak intermolecular force, and thus the poorly water-soluble alcohol cannot form a film even when separated from an ink. In consideration of this point, the poorly water-soluble alcohol preferably has a surface tension of 36.0 mN/m or more. The poorly water-soluble alcohol preferably has a surface tension of 50 mN/m or less.

[1] = Partition coefficient (n-octanol / water), common logarithm; details: for LogPA: poorly water-soluble alcohol (solvent A); for LogPB: highly water-soluble solvent (solvent B); for Log partition coefficient: solvents used in Comparative Examples
[2] = Solubility in water at 20° C. (saturated solubility); assay type: physicochemical
Method: As the poorly water-soluble solvent, at least an alcohol having a vapor pressure at 20° C. of 0.5 mmHg or less and a surface tension of 30.0 mN/m or more (hereinafter also called “poorly water-soluble alcohol”) is used.

Surface tension = assay type: physicochemical
Method: The present invention will now be more specifically described with reference to preferred embodiments, but the invention is not intended to be limited to the following embodiments. In the present specification, an aqueous ink for ink jet may be simply called “ink”. Physical property values are values determined at normal temperature (25° C.) unless otherwise noted.
as §1

[3] = solvents used in Comparative Examples

| Vapor pressure (Vapor pressure at 20° C.) [mmHg] | LogPA [1] | Solubility [2] [g/100 g-H2O] | Surface tension (Surface tension) [mN/m] | SMILES | LogPB [1] | further results |
| --- | --- | --- | --- | --- | --- | --- |
| 0.0 | 1.51 | 1.10 | 37.7 | CC(O)COc1ccccc1 (centres unmarked) [1-Phenoxy-2-propanol] |  |  |
|  |  |  |  | O=C1CCCN1 [2-Pyrrolidone] | −1.01 |  |
| 0.0 | 1.88 | 0.57 | 38.9 | OCCCc1ccccc1 [3-Phenyl-1-propanol] |  |  |
| 0.0 | 2.40 | 0.10 | 38.3 | OCCCCc1ccccc1 [4-Phenyl-1-butanol] |  |  |
|  |  |  |  | CC(=O)OCc1ccccc1 [Benzyl acetate] |  | Vapor pressure (Vapor pressure at 20° C.; [3]): 0.2 mmHg; Log partition coefficient [1]: 1.84; Solubility [2, 3]: 0.30 g/100 g-H2O; Surface tension (Surface tension; [3]): 35.9 mN/m |
| 0.1 | 1.03 | 4.29 | 39.0 | OCc1ccccc1 [Benzyl alcohol] |  |  |
|  |  |  |  | OCCO [Ethylene glycol] | −1.69 |  |
|  |  |  |  | CCCCCO [Example 1-Pentanol, 1-Pentanol] |  | Vapor pressure (Vapor pressure at 20° C.; [3]): 1.5 mmHg; Log partition coefficient [1]: 1.41; Solubility [2, 3]: 2.20 g/100 g-H2O; Surface tension (Surface tension; [3]): 25.5 mN/m |
|  |  |  |  | OCC(O)CO [Glycerol] | −2.32 |  |
|  |  |  |  | C=CC(C)(O)CCC=C(C)C (centres unmarked) [Linalool] |  | Vapor pressure (Vapor pressure at 20° C.; [3]): 0.2 mmHg; Solubility [2, 3]: 1.50 g/100 g-H2O; Surface tension (Surface tension; [3]): 26.6 mN/m |
|  |  |  |  | COCCOCCO [Methyl carbitol] | −1.16 |  |
| 0.1 |  | 2.20 | 39.7 | OCCc1ccccc1 [Phenethyl alcohol] |  |  |
|  |  |  |  | O=CCc1ccccc1 [Phenylacetaldehyde] |  | Vapor pressure (Vapor pressure at 20° C.; [3]): 0.4 mmHg; Surface tension (Surface tension; [3]): 35.9 mN/m |
|  |  |  |  | CC(O)CO (centres unmarked) [Propylene glycol] | −1.34 |  |
|  |  | ≥ 20 |  | OCCOCCOCCO [Triethylene glycol] | −1.87 |  |
|  |  |  |  | COc1ccc(C=O)cc1 [p-Anisaldehyde] |  | Vapor pressure (Vapor pressure at 20° C.; [3]): 0.0 mmHg; Solubility [2, 3]: 0.40 g/100 g-H2O; Surface tension (Surface tension; [3]): 37.2 mN/m |

| SMILES | Vapor pressure (Vapor pressure at 20° C.) [mmHg] | LogPA [1] | Solubility [2] [g/100 g-H2O] | Surface tension (Surface tension) [mN/m] | LogPB [1] | further results |
| --- | --- | --- | --- | --- | --- | --- |
| CC(O)Cc1ccccc1 (centres unmarked) [1-Phenyl-2-propanol] | 0.1 | 1.71 | 0.58 | 37.3 |  |  |
| OCCOc1ccccc1 [2-Phenoxyethanol] | 0.0 | 1.16 | 2.67 | 40.0 |  |  |
